Tests used:
[1] = system: NF-kB; assay: NF-κB INHIBITION TEST (NF-kB luciferase reporter, TNFα-stimulated H9c2 cells); assay type: cell-based, Rat
Method: The NF-κB INHIBITION TEST was conducted as follows. Rat cardiac myoblasts H9c2 cells were purchased from ATCC (Manassas, Va.). Cultures were maintained in Dulbecco's modified Eagle's medium (DMEM, Invitrogen Life Technologies, Carlsbad, Calif.) supplemented with 10% fetal bovine serum, 100 units/ml penicillin, and 50 ug/ml streptomycin (Invitrogen life technologies, Carlsbad, Calif.). 1×10^4 cells grown in 96-well plates were transiently transfected with 0.45 ug total DNA per well using Lipofectamine 2000 (Invitrogen life technologies, Carlsbad, Calif.). In all transfections, a construct with the thymidine kinase promoter and the Renilla luciferase reporter gene (pRL-TK, Promega, Madison Wis.) was included as an internal control in addition to the NF-kB luciferase promoter. One day after transfection, cells were treated with the indicated samples (in DMSO as vehicle) at indicated concentrations and stimulated with 100 ng/mL of Tumor Necrosis Factor-α (TNFα, Sigma-Aldrich, St Louis, Mo.) for approximately 24 hours before they were lysed for luciferase assays, using Dual-Luciferase Reporter System from Promega (Madison, Wis.), following manufacturer's protocol. Briefly, the firefly luciferase activity was measured first (representing NF-kB promoter activity), followed by the renilla luciferase (internal control), using luminometer LMAX, from Molecular Devices (Sunnyvale, Calif.). The ratio of these two luciferase activities (RLU) was used to evaluate the activity of each promoter:
NF-κB Inhibition=[1−(RLUsample/RLUcontrol)]*100
where RLUsample and RLUcontrol are the normalized luciferase activity ratios of the sample and control, respectively.
Percent NF-kB Inhibition is also reported.

[2] = system: Collagenase; assay: Collagenase inhibition, EnzCheck assay; assay type: biochemical
Method: Collagenase inhibition was measured using EnzCheck® assay (Molecular Probes, Eugene, Oreg.) according to the manufacturer's instructions. Test materials were evaluated over a wide range of concentrations. Fluorescence was measured after 2-3 hours using a microplate reader set with the wavelength combination 485/530 nm

[3] = 10 ug/mL, TNFα 100 ng/ml stimulated H9c2 cells
[4] = 0.0001% by weight of alkylphenol
[5] = 0.001% by weight of alkylphenol

Row | Structure (SMILES) | Percent NF-kB Inhibition relative to vehicle ([1]; 0.2 ug/ml, vehicle 0.1% DMSO) [%] | Percent NF-kB Inhibition relative to vehicle ([1]; 0.5 ug/ml, vehicle 0.1% DMSO) [%] | Percent NF-kB Inhibition relative to vehicle ([1]; 1 ug/ml, vehicle 0.1% DMSO) [%] | Percent NF-kB Inhibition relative to vehicle ([1]; 2 ug/ml, vehicle 0.1% DMSO) [%] | Percent NF-kB Inhibition relative to vehicle ([1]; 4 ug/ml, vehicle 0.1% DMSO) [%] | Percent NF-kB Inhibition relative to vehicle [1, 3] | Percent NF-kB Inhibition relative to vehicle ([1]; 25 ug/mL, TNFα 100 ng/ml stimulated H9c2 cells) | Percent Inhibition of Collagenase [2, 4] [%] | Percent Inhibition of Collagenase [2, 5] [%] | Percent Inhibition of Collagenase ([2]; 0.01% by weight of alkylphenol) [%] | Percent Inhibition of Collagenase ([2]; 0.1% by weight of alkylphenol) [%] | Percent Inhibition of Collagenase ([2]; 1% by weight of alkylphenol) [%]
1 | Oc1ccc(/C=C/c2cc(O)cc(/C=C/c3ccc(O)cc3)c2)cc1 [1-hydroxyl 3,5-bis(4′hydroxylstyryl)benzene] | 0.5 | 22.1 | 51.7 | 71.0 | 96.1 |  |  |  |  |  |  | 
2 | CCCc1ccc(O)cc1 [4-propylphenol, reference compound] |  |  |  |  |  | (−49.2%) | (−59.1%) |  |  |  |  | 
3 | CCCCCCc1ccc(O)cc1 [4-hexylphenol] |  |  |  |  |  |  |  | 19.57 | 16.90 | 27.67 | 28.82 | 46.13
4 | CCCCCc1ccc(O)cc1 [4-amylphenol] |  |  |  |  |  | 54.2% |  | 29.42 | 29.30 | 34.19 | 44.66 | 53.33
5 | CCCCc1ccc(O)cc1 [4-butylphenol] |  |  |  |  |  |  |  | 26.55 | 23.16 | 26.81 | 54.38 | 59.51

From patent publication US20140005276A1, “COMPOSITIONS COMPRISING SUBSTITUTED PHENOLS AND TOPICAL APPLICATION THEREOF” (priority 2012, published 2014)
